Values quoted from earlier work, collected in patent US20200253960A1, “ANTIBIOTIC FORMULATIONS FOR TREATING OF CAVITY INFECTIONS” (ARADIGM CORPORATION, priority 2019, published 2020).

Test system: Pseudomonas aeruginosa
Conditions: cystic fibrosis

With `CC[C@H]1OC(=O)[C@H](C)[C@@H](O[C@H]2C[C@@](C)(OC)[C@@H](O)[C@H](C)O2)[C@H](C)[C@@H](O[C@@H]2O[C@H](C)C[C@H](N(C)C)[C@H]2O)[C@](C)(O)C[C@@H](C)CN(C)[C@H](C)[C@@H](O)[C@]1(C)O` [azithromycin] as the compound, how does the “interaction with inhaled tobramycin” value read?
The value was “antagonistic against inhaled tobramycin”.
